Assay results from PubChem BioAssay AID2060895 (Molecular Pharmacology Branch, DTP, NCI, 2025).

Tested on: PDC 899932-113-R3-J6 complex spheroid viability
Test: Anticancer human tumor 899932-113-R3-J6-PDC patient-derived melanoma cell line growth inhibition [RAS]
Conditions: for IC50: curve of first compound; for viability, T/C: stronger effect = lower value; active = viability on the fitted dose curve at most 10% of control; inactive = the rest
How it was run: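 Multi-cell-type spheroids: tumor cells plus HUVEC endothelial cells and mesenchymal stem cells. RAS-pathway inhibitors were combined with targeted agents, each dosed in half-log steps down from clinical Cmax, or from 10 microM when Cmax was unknown.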

[1] = second compound 0.00316 µM, first compound 0.000949 µM
[2] = second compound 0.00316 µM, first compound 0.003 µM
[3] = second compound 0.00316 µM, first compound 0.00949 µM
[4] = second compound 0.00316 µM, first compound 0.03 µM
[5] = second compound 0.00316 µM, first compound 0.0949 µM
[6] = second compound 0.00316 µM, first compound 0.3 µM
[7] = second compound 0.01 µM, first compound 0.000949 µM
[8] = second compound 0.01 µM, first compound 0.003 µM
[9] = second compound 0.01 µM, first compound 0.00949 µM
[10] = second compound 0.01 µM, first compound 0.03 µM
[11] = second compound 0.01 µM, first compound 0.0949 µM
[12] = second compound 0.01 µM, first compound 0.3 µM
[13] = second compound 0.0316 µM, first compound 0.000949 µM
[14] = second compound 0.0316 µM, first compound 0.003 µM
[15] = second compound 0.0316 µM, first compound 0.00949 µM
[16] = second compound 0.0316 µM, first compound 0.03 µM
[17] = second compound 0.0316 µM, first compound 0.0949 µM
[18] = second compound 0.0316 µM, first compound 0.3 µM
[19] = second compound 0.1 µM, first compound 0.000949 µM
[20] = second compound 0.1 µM, first compound 0.003 µM
[21] = second compound 0.1 µM, first compound 0.00949 µM
[22] = second compound 0.1 µM, first compound 0.03 µM
[23] = second compound 0.1 µM, first compound 0.0949 µM
[24] = second compound 0.1 µM, first compound 0.3 µM
[25] = second compound 0.316 µM, first compound 0.000949 µM
[26] = second compound 0.316 µM, first compound 0.003 µM
[27] = second compound 0.316 µM, first compound 0.00949 µM
[28] = second compound 0.316 µM, first compound 0.03 µM
[29] = second compound 0.316 µM, first compound 0.0949 µM
[30] = second compound 0.316 µM, first compound 0.3 µM
[31] = second compound 1 µM, first compound 0.000949 µM
[32] = second compound 1 µM, first compound 0.003 µM
[33] = second compound 1 µM, first compound 0.00949 µM
[34] = second compound 1 µM, first compound 0.03 µM
[35] = second compound 1 µM, first compound 0.0949 µM
[36] = second compound 1 µM, first compound 0.3 µM
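Throughout, for viability, T/C: spheroids exposed to agents for seven days before readout; 100% = DMSO vehicle control wells.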

CC1(C)CCC(Nc2ncc(C(F)(F)F)c(-c3c[nH]c4c(P(C)(C)=O)c(C#N)ccc34)n2)CN1 (stereo unspecified) + C=CC(=O)N1CCN(c2nc(OCC3CCCN3C)nc3c(F)c(-c4nc(N)cc(C)c4C(F)(F)F)c(Cl)cc23)C(C)C1
9.45 nM: IC50 (second compound 0.316 µM)
active: viability, T/C [6] 8.68% | viability, T/C [18] 8.82% | viability, T/C [24] 8.6% | viability, T/C [30] 9.67% | viability, T/C [36] 10.9%
8.03 nM: IC50 (second compound 1 µM)
9.74 nM: IC50 (second compound 0.01 µM)
8.56 nM: IC50 (second compound 0.1 µM)
11 nM: IC50 (second compound 0.0316 µM)
8.77 nM: IC50 (second compound 0.00316 µM)
inactive: viability, T/C [1] 105% | viability, T/C [2] 73% | viability, T/C [3] 51.5% | viability, T/C [4] 25.9% | viability, T/C [5] 16.4% | viability, T/C [7] 96.8% | viability, T/C [8] 79.2% | viability, T/C [9] 48% | viability, T/C [10] 30.5% | viability, T/C [11] 16.4% | viability, T/C [12] 11.2% | viability, T/C [13] 102% | viability, T/C [14] 75.3% | viability, T/C [15] 56.3% | viability, T/C [16] 29.9% | viability, T/C [17] 15.4% | viability, T/C [19] 94.8% | viability, T/C [20] 68% | viability, T/C [21] 51.4% | viability, T/C [22] 28.1% | viability, T/C [23] 16.4% | viability, T/C [25] 107% | viability, T/C [26] 73.9% | viability, T/C [27] 52.9% | viability, T/C [28] 30.4% | viability, T/C [29] 12.2% | viability, T/C [31] 95.1% | viability, T/C [32] 71.7% | viability, T/C [33] 47.4% | viability, T/C [34] 25.7% | viability, T/C [35] 10.5%

CCc1c2c(nc3ccc(O)cc13)-c1cc3c(c(=O)n1C2)COC(=O)[C@]3(O)CC + C=CC(=O)N1CCN(c2nc(OCC3CCCN3C)nc3c(F)c(-c4nc(N)cc(C)c4C(F)(F)F)c(Cl)cc23)C(C)C1
inactive: viability, T/C [1] 89.8% | viability, T/C [2] 65.9% | viability, T/C [3] 57.6% | viability, T/C [4] 48.6% | viability, T/C [5] 39.2% | viability, T/C [6] 36% | viability, T/C [7] 92.8% | viability, T/C [8] 67.4% | viability, T/C [9] 59.2% | viability, T/C [10] 50.2% | viability, T/C [11] 43% | viability, T/C [12] 36.4% | viability, T/C [13] 93.5% | viability, T/C [14] 78% | viability, T/C [15] 59.9% | viability, T/C [16] 51% | viability, T/C [17] 43.9% | viability, T/C [18] 30.3% | viability, T/C [19] 102% | viability, T/C [20] 69.5% | viability, T/C [21] 61.3% | viability, T/C [22] 55.7% | viability, T/C [23] 43.2% | viability, T/C [24] 38.4% | viability, T/C [25] 95.6% | viability, T/C [26] 71.7% | viability, T/C [27] 58.6% | viability, T/C [28] 54.1% | viability, T/C [29] 43% | viability, T/C [30] 34.4% | viability, T/C [31] 96.5% | viability, T/C [32] 75% | viability, T/C [33] 59.9% | viability, T/C [34] 51.7% | viability, T/C [35] 44.6% | viability, T/C [36] 34.3%
24.3 nM: IC50 (second compound 0.01 µM)
29.4 nM: IC50 (second compound 0.316 µM)
19.6 nM: IC50 (second compound 0.00316 µM)
33.1 nM: IC50 (second compound 0.0316 µM)
30.3 nM: IC50 (second compound 0.1 µM)
31.8 nM: IC50 (second compound 1 µM)

C=CC(=O)Nc1cc(Nc2nccc(-c3cn(C)c4ccccc34)n2)c(OC)cc1N(C)CCN(C)C + CCn1c(-c2cc(N3CCN(C)CC3)cnc2C(C)OC)c2c3cc(ccc31)-c1csc(n1)CC(NC(=O)C1CC1C)C(=O)N1CCCC(N1)C(=O)OCC(C)(C)C2
active: viability, T/C (second compound 0.00949 µM, first compound 0.00316 µM) 4.3% | viability, T/C (second compound 0.00949 µM, first compound 0.01 µM) 3.34% | viability, T/C (second compound 0.00949 µM, first compound 0.0316 µM) 3.46% | viability, T/C (second compound 0.00949 µM, first compound 0.1 µM) 3.41% | viability, T/C (second compound 0.00949 µM, first compound 0.316 µM) 2.9% | viability, T/C (second compound 0.00949 µM, first compound 1 µM) 2.5% | viability, T/C (second compound 0.03 µM, first compound 0.00316 µM) 2.61% | viability, T/C (second compound 0.03 µM, first compound 0.01 µM) 2.72% | viability, T/C (second compound 0.03 µM, first compound 0.0316 µM) 2.62% | viability, T/C (second compound 0.03 µM, first compound 0.1 µM) 2.55% | viability, T/C (second compound 0.03 µM, first compound 0.316 µM) 2.41% | viability, T/C (second compound 0.03 µM, first compound 1 µM) 1.43% | viability, T/C (second compound 0.0949 µM, first compound 0.00316 µM) 2.26% | viability, T/C (second compound 0.0949 µM, first compound 0.01 µM) 2.18% | viability, T/C (second compound 0.0949 µM, first compound 0.0316 µM) 2.56% | viability, T/C (second compound 0.0949 µM, first compound 0.1 µM) 2.02% | viability, T/C (second compound 0.0949 µM, first compound 0.316 µM) 1.87% | viability, T/C (second compound 0.0949 µM, first compound 1 µM) 1.11% | viability, T/C (second compound 0.3 µM, first compound 0.00316 µM) 2.04% | viability, T/C (second compound 0.3 µM, first compound 0.01 µM) 2.23% | viability, T/C (second compound 0.3 µM, first compound 0.0316 µM) 1.88% | viability, T/C (second compound 0.3 µM, first compound 0.1 µM) 1.96% | viability, T/C (second compound 0.3 µM, first compound 0.316 µM) 1.49% | viability, T/C (second compound 0.3 µM, first compound 1 µM) 1.11%
> 1000 nM: IC50 (second compound 0.000949 µM)
< 3.16 nM: IC50 (second compound 0.003 µM) | IC50 (second compound 0.00949 µM) | IC50 (second compound 0.03 µM) | IC50 (second compound 0.0949 µM) | IC50 (second compound 0.3 µM)
inactive: viability, T/C (second compound 0.000949 µM, first compound 0.00316 µM) 69.1% | viability, T/C (second compound 0.000949 µM, first compound 0.01 µM) 69.2% | viability, T/C (second compound 0.000949 µM, first compound 0.0316 µM) 67% | viability, T/C (second compound 0.000949 µM, first compound 0.1 µM) 79.7% | viability, T/C (second compound 0.000949 µM, first compound 0.316 µM) 76.7% | viability, T/C (second compound 0.000949 µM, first compound 1 µM) 64.3% | viability, T/C (second compound 0.003 µM, first compound 0.00316 µM) 32.5% | viability, T/C (second compound 0.003 µM, first compound 0.01 µM) 28.4% | viability, T/C (second compound 0.003 µM, first compound 0.0316 µM) 28.7% | viability, T/C (second compound 0.003 µM, first compound 0.1 µM) 33.8% | viability, T/C (second compound 0.003 µM, first compound 0.316 µM) 31.5% | viability, T/C (second compound 0.003 µM, first compound 1 µM) 16.9%
